Measurements published in US10946099B2, “Compositions for photodynamic therapy and fluorescence diagnosis of cancers and other diseases” (VISION GLOBAL HOLDINGS LIMITED, priority 2017, dated 2021).

Legend:
[1] = system: liver cancer cell line SK-Hep-1; experiment: Cellular localization with MitoTracker, LysoTracker and ER-Tracker; type: cell-based
Procedure: The Mitotracker, lysotracker and ER-tracker (Thermo Fisher Scientific) were used to label mitochondria, lysosome and endoplasmic reticulum (ER) respectively. Two measures of correlation, the Pearson correlation coefficient (PCC) and the Mander's overlap coefficient (MOC) were calculated as depicted in the table below.

[2] = system: HCT 116; experiment: Cell phototoxicity assay (MTT); type: cell-based; conditions: concentration greater than about 25 μg/ml
Procedure: (§1) To determine cell viability under dark conditions, cells (1×10^4 cells/well) were seeded onto 96-well plates and incubated for 24 h at 37° C. After cell stabilization, the culture medium was replaced with 100 μl of culture medium containing free PpIX or PpIX-TF conjugate (referred to herein as TF01), followed by incubation for 24 h. The cells were then washed twice with serum-free medium and cell viability was evaluated by MTT assay after 48 h. To determine the in vitro phototoxicity after laser irradiation, cells (1×10^4 cells/well) were seeded onto 96-well plates and incubated for 24 h at 37° C. The cells were then treated with free PpIX or a PpIX-TF conjugate (TF01). After 24 h incubation, the cells were washed twice with serum-free medium and irradiated at a light intensity of 150 mW/cm^2 using 450 nm or 627 nm LED light source for 30 min or 10 mW/cm^2 using a 635-nm laser source for 5-30 min (3 J/cm^2 to 18 J/cm^2). The cell viability of irradiated cells was evaluated by MTT assay after 24 h of incubation.
(§2) For each cancer cell line, measurements were performed in dark and in the presence of 450 nm blue laser light or 627 nm red light.

[3] = system: HepG2; experiment: Cell phototoxicity assay (MTT); type: cell-based; conditions: concentration greater than about 25 μg/ml
Procedure: as §1, §2

[4] = Fluorescence emission spectroscopy; type: physicochemical
From the text: A BMG fluostar spectrofluorophotometer was used to record fluorescent emissions of PpIX or PpIX-TF conjugate (referred to herein as TF01) suspended in aqueous buffer. A UV-vis spectrophotometer was used to record the absorbance spectra of PpIX and TF.

[5] = system: human hepatoma SK-HEP 1 xenograft; experiment: In vivo PDT efficacy; conditions: 400 mg/kg intravenously, followed by laser application (230 mW/cm^2, 260 J/cm^2, 635-nm); nude mice
Procedure: To test the in vivo PDT efficacy of PpIX-TF conjugate, nude mice bearing human hepatoma SK-HEP 1 xenograft were intravenously treated with PBS, 200 mg/kg or 400 mg/kg PpIX-TF conjugate (TF01) respectively (n=3-4 per group), followed by the laser application (at a light intensity 230 mW/cm^2, 260 J/cm^2, using a 635-nm laser source). Visible tumors were measured using two orthogonal measurements L and W (perpendicular to L), the volumes were calculated using the formula V=LW2/2 and recorded.

[6] = Solubility and dispersibility in aqueous buffer; type: physicochemical; conditions: compared to PpIX in aqueous Tris-HCl buffer, 20 mM, pH 8.5
Procedure: Improvement in solubility and dispersibility of the PpIX-TF conjugate was compared to PpIX in aqueous Tris-HCl buffer, 20 mM, pH 8.5 (FIG. 6).

[7] = system: colorectal carcinoma cell line HCT116; experiment: Cell uptake and imaging (fluorescence microscopy); type: cell-based
Procedure: Cancer cells were used to detect and compare cellular uptake of PpIX and PpIX-TF conjugate (referred to herein as TF01) in vitro. The cells were cultured in medium supplemented with 10% fetal bovine serum at 37° C. and 5% CO2. After incubating cells with PpIX-TF conjugate (TF01), images were viewed by confocal microscopy.
FIG. 9 depicts the fluorescence microscopic analysis of cellular uptake of recombinant TF in a colorectal carcinoma cell line HCT116.

[8] = system: SK-Hep-1 cell; experiment: Soft agar colony-formation assay; type: cell-based; conditions: 10 ug/ml, 3 J/cm^2, 635-nm laser source
Procedure: To estimate the anchorage-independent growth ability of cells treated by PpIX-TF conjugate (referred to herein as TF01), 3×10^4 cells of SK-Hep-1 cell were seeded in 35 mm dish and incubated for 24 h at 37° C. The cells were then treated with a PpIX-TF conjugate (TF01) or medium control. After 24 h incubation, the cells were washed twice with serum-free medium and irradiated at a light intensity of 10 mW/cm^2 using a 635-nm laser source for 5 min. Then, 5000 cells were suspended in 0.3% noble agar and cells were allowed to grow for another 2 weeks. Colonies were stained with 0.02% Giemsa Stain Solution, and documented by scanning.

[9] = Cell phototoxicity assay under different dosages of 635-nm laser excitation (FIG. 16); type: cell-based; conditions: when laser dosage were increased (635-nm laser, 3 J/cm^2 to 18 J/cm^2)
Procedure: as §1
When laser dosage were increased, the corresponding IC50 values of PpIX-TF conjugate (TF01) were decreased.

[10] = system: HCT116 cells; experiment: Intracellular ROS generation (cellrox reagent); type: cell-based
Procedure: To examine intracellular ROS generation by PpIX and PpIX-TF conjugate (TF01), HCT116 cells were seeded in 24-well, glass-bottomed plate and incubated with cellrox reagent (Thermo Fisher Scientific). After 30 min, the cells were washed three times by PBS and treated with PpIX or PpIX-TF conjugate (TF01). After 24 h of incubation, the cells were washed twice with PBS and then exposed to a 10 mW/cm^2 using a 635-nm laser source for 30 min. After irradiation, the fluorescence intensity of cells was measured by a microplate reader with excitation/emission at 485/520 nm. The values are expressed as fluorescence intensity ratio to control.

[11] = Singlet oxygen / ROS generation by RNO bleaching; type: physicochemical; conditions: relative to positive control methylene blue; RNO bleaching near 440 nm
Procedure: To determine singlet oxygen generation, singlet oxygen detection method was applied to a 3 ml aqueous solution containing the singlet oxygen generator, 50 µM of RNO and 8 mM of imidazole. The detection for absorption intensity of RNO near 440 nm was monitored to reflect the production of ROS by a UV-vis spectrophotometer after time intervals of laser exposure.

## TF01: conjugate of PpIX and recombinant TF (globin 2αβ2 tetramer); PpIX non-covalently associated with the protein
[1]; Endoplasmic reticulum
  Mander's overlap coefficient (MOC): 0.6908
  Pearson correlation coefficient (PCC): 0.6076
[1]; Lysosome
  Mander's overlap coefficient (MOC): 0.4866
  Pearson correlation coefficient (PCC): 0.4974
[1]; Mitochondria
  Mander's overlap coefficient (MOC): 0.4684
  Pearson correlation coefficient (PCC): 0.4922
[2]; irradiation 450 nm blue light
  survival rates of the cells: markedly decrease
[2]; irradiation 627 nm red light
  survival rates of the cells: markedly decrease
[3]; irradiation 450 nm blue light
  survival rates of the cells: markedly decrease
[3]; irradiation 627 nm red light
  survival rates of the cells: markedly decrease
[4]; 50 mM Tris-HCl or potassium phosphate buffer, λmax=625 nm
  pH dependence of the emission intensity: wide pH range
[5]
  tumor volume: tumor regression
[6]
  solubility and dispersibility: Improvement
[7]
  cellular uptake / distribution of fluorescent signals: widely distributed in the cytoplasm
[8]
  cancer cell soft agar colony formation: significantly inhibit
[9]
  IC50 values under different dosages of 635-nm laser excitation: decreased
[10]; 50 um/ml (batch 2), approximately 0.71 uM PpIX, 635-nm laser 10 mW/cm^2 30 min, versus control PpIX 0.75 uM
  intracellular ROS generation: greatly enhance
[11]
  quantum yield of ROS: almost double that of methylene blue

## Batch 1: exemplary batch of PpIX-TF conjugate (TF01), molar ratio of PpIX to TF protein 0.690
[4]; 5 mg/ml (approximately 53 μM PpIX) in Tris-HCl buffer 20 mM, pH 8.5, versus control 60 μM PpIX with 5% DMSO
  emission properties: greater

## OO [H2O2, reference compound]
[10]; 100 uM, positive control, HCT116
  intracellular ROS generation: increase
